Laboratory results: patent US7115544B2, “Plant growth regulators for cotton hervest” (Sumitomo Chemical Company, Limited, priority 2001, dated 2006)

What was measured:
cotton plants = test: Field test on cotton plants at boll opening: defoliation ratio and boll opening after foliar spray; type: in vivo; conditions: for Defoliation ratio (%) Rep. 1 / Defoliation ratio (%) Rep. 2 / Defoliation ratio (%) Rep. 3: 20 g/ha, emulsifiable concentrate diluted with water containing 1% (v/v) COC, day 14 after the treatment; for Defoliation ratio (%) Rep. 1: replication 1 about 60% of open bolls; for Defoliation ratio (%) Rep. 2: replication 2 about 60 to 70% of open bolls; for Defoliation ratio (%) Rep. 3: replication 3 80 to 85% of open bolls; for cotton boll opening: field test, sprayed at the time of cotton boll opening
Description: The test results were evaluated according to the following criteria: Defoliation ratio (%)=(the number of dropped leaves/the total number of leaves examined)×100
Cotton seeds were planted and grown in the field. At the time of cotton boll opening, 2.5 parts of each of compounds […], 10 parts of Sorpol 3890 (Toho Chemical Industry Co., Ltd.), and 87.5 parts of SOLVESSO 200 (Exxon Mobile Chemical Company) were well mixed to give an emulsifiable concentrate for each compound, which was then diluted at a prescribed dose with water containing 1% (v/v) crop oil concentrate (COC), and the dilution was uniformly sprayed to the plants. Treatments were carried out with three replications. Replication 1 had about 60% of open bolls; replication 2 had about 60 to 70% of open bolls; replication 3 had 80 to 85% of open boils. The treated fields are each 4 m×6.4 m in area, and the cotton plants on day 14 after the treatment were examined for the defoliation ratio.

| SMILES | Defoliation ratio (%) Rep. 1 (cotton plants) [%] | Defoliation ratio (%) Rep. 2 (cotton plants) [%] | Defoliation ratio (%) Rep. 3 (cotton plants) [%] | cotton boll opening (cotton plants) | melting point [°C] |
| --- | --- | --- | --- | --- | --- |
| COC(=O)COc1ccccc1Oc1cc(-n2c(=O)cc(C(F)(F)F)n(C)c2=O)c(F)cc1Cl [Compound a-5, methyl [2-{2-chloro-4-fluoro-5-[3-methyl-2,6-dioxo-4-(trifluoromethyl)-1,2,3,6-tetrahydropyrimidin-1-yl]phenoxy}phenoxy]acetate] | 85 | 90 | 82 | stimulated cotton boll opening |  |
| COC(=O)COc1ncccc1Oc1cc(-n2c(=O)cc(C(F)(F)F)n(C)c2=O)c(F)cc1Cl [Compound a-6, methyl [3-{2-chloro-4-fluoro-5-[3-methyl-2,6-dioxo-4-(trifluoromethyl)-1,2,3,6-tetrahydropyrimidin-1-yl]phenoxy}-2-pyridyloxy]acetate] | 80 | 75 | 85 | stimulated cotton boll opening |  |
| Cn1c(C(F)(F)F)cc(=O)n(-c2cc(Oc3ccccc3OCC(=O)OC(C)(C)C)c(Cl)cc2F)c1=O [Compound a-121, t-butyl [2-{2-chloro-4-fluoro-5-[3-methyl-2,6-dioxo-4-(trifluoromethyl)-1,2,3,6-tetrahydropyrimidin-1-yl]phenoxy}phenoxy]acetate] |  |  |  |  | 55.6 |
